Test results as given in paper PMC6385242, “Identification and characterization of a factor Va-binding site on human prothrombin fragment 2” (Scientific Reports, 2019).

Tests used:
[1] = system: FXa/PCPS, prothrombin activation; experiment: Inhibition of FXa-mediated prothrombin activation by F2-derived peptides in the absence of FVa; assay type: biochemical, human; conditions: 300 nM prothrombin, 5 mM CaCl2, 5 μM DAPA, 50 μM PCPS, 20 nM FXa
Procedure: Figure 3 Inhibition of FXa-mediated prothrombin activation by synthetic peptides derived from F2. […] Reactions were started by addition of 20 nM FXa. […] Reactions were initiated by addition of 0.1 nM FXa. Non-linear regression analysis was carried out to determine the IC50 and the apparent Ki was calculated using the Cheng-Prusoff equation.
(§1) Reactions were started with addition of FXa (0.1 nM), and monitored in SpectraMax Gemini fluorescence plate reader (Molecular Devices, Sunnyvale, California) at excitation and emission wavelengths of 280 nm and 545 nm, respectively, with a 530 nm emission cut off filter in the emission beam at 25 °C. In the absence of FVa, reactions were carried out as described above; however, the reactions were started with the addition of 20 nM FXa. The Ki values were estimated using the Cheng-Prusoff equation (IC50 = [1 + ([S]/KM)] Ki) based on the IC50 values obtained by nonlinear regression of a rectangular hyperbola, whereby [S] is the prothrombin concentration and KM is the Michaelis constant of prothrombinase for prothrombin determined in a separate experiment as described previously.

[2] = molecular target: T1, prothrombinase (FXa/FVa/PCPS), prothrombin activation (Homo sapiens, UniProt P00742+P12259); experiment: Relative rate of prothrombin activation with F2-derived peptides (screen, Fig. S1); assay type: biochemical; conditions: peptide 0, 50, 200, 500 μM; 300 nM prothrombin, 5 mM CaCl2, 3 μM DAPA, 50 μM PCPS, 5 nM FVa, 0.05 nM FXa
T1 construct: purchased Haematologic Technologies, Inc (FXa, FVa); Enzyme Research Laboratories (prothrombin)
Procedure: as §1
Figure S1. Relative rate of prothrombin activation in the presence of each of the peptides at various concentrations. Initial rates of prothrombin activation were determined from reactions containing 300 nM prothrombin. 5 mM CaCl2, 3 μM DAPA, 50 μM PCPS, 5 nM FVa and 0.05 nM FXa. Relative rates of prothrombin activation are shown for each concentration of peptide at […]
(1 picture or pasted object on this page, not shown here)

[3] = system: F2 (prothrombin fragment 2); conditions: thrombin/F2 molar ratios 1:30 to 1:10; clusters Asp68–Lys81 and Ala96–Asp108; ref (9) Koutychenko, A. (2002); cited from earlier work
Excerpt: page 3: plasma-derived material, indicating purity and functional integrity of the recombinant F2 protein (9). […] Not abl y, there were two upfield -shifted meth yl proton resonances, which are common for a conserved Leu residue in all kringle domains (10 –12) .

[4] = system: F2 (prothrombin fragment 2); experiment: HSQC NMR of 15N-labeled F2 with thrombin or thrombin-derived peptide; assay type: binding, human; conditions: F2:peptide ratio as printed
Procedure: Uniform ^15N and ^13C/^15N isotopic labeling of F2 was achieved as described previously. Once labeled, F2 preparations prepared and pH adjusted, 25 μL of D2O was added to the protein solution to provide the NMR deuterium lock signal. For the titration experiments, small aliquots of the FVa-HC or FPRck-thrombin, both in 2 mM HEPES, 50 mM sodium phosphate buffer, pH 7, were added to samples of ^15N-labeled F2 up to a molar ratio of ~10:1. […]
All NMR experiments were carried out at 35° C on a Bruker Avance500 or an Avance800 spectrometer equipped with triple-resonance (^1H, ^13C, and ^15N) and three-axis gradient probes. Two-dimensional and three-dimensional NMR data collected for ^15N- and ^13C/^15N-labeled F2 included ^1H-^15N HSQC, HNCO, HN(CA)CO, HNCA, HN(CO)CA, CBCA(CO)NH and HNCACB[57]–[59]. Water suppression was achieved using the WATERGATE method with a 3:9:19 selective pulse incorporated in all the three-dimensional pulse sequences. […]
synthesized a peptide corresponding to residues 91- 101 of human thrombin with two cysteine residues added to form a disulfide bond between the N- and C-terminal en ds of the p eptide (s ee Experimental Procedures). […] Potential binding of the thrombin- derived peptide with F2 was monitored by the 1H-15N HSQC spectra of 15N-labeled F2 with a F2:peptide ratio of 3:1. […]

[5] = system: prothrombinase; conditions: cited from earlier work
Excerpt: It has been widely accepted that FVa alone increases the rate of thrombin generation by 3 orders of magnitude while the membrane surface alone increases the catalytic efficiency of thrombin generation by 2 orders of magnitude, which together increases its catalytic efficiency by 5 orders of magnitude. These individual contributions of the prothrombinase components toward overall thrombin generation, however, were not observed in our experiments (Table 1). […] The 5-orders of magnitude ...

[6] = pH 7.4

T1 sequence (P12259 29-737 limits assumed): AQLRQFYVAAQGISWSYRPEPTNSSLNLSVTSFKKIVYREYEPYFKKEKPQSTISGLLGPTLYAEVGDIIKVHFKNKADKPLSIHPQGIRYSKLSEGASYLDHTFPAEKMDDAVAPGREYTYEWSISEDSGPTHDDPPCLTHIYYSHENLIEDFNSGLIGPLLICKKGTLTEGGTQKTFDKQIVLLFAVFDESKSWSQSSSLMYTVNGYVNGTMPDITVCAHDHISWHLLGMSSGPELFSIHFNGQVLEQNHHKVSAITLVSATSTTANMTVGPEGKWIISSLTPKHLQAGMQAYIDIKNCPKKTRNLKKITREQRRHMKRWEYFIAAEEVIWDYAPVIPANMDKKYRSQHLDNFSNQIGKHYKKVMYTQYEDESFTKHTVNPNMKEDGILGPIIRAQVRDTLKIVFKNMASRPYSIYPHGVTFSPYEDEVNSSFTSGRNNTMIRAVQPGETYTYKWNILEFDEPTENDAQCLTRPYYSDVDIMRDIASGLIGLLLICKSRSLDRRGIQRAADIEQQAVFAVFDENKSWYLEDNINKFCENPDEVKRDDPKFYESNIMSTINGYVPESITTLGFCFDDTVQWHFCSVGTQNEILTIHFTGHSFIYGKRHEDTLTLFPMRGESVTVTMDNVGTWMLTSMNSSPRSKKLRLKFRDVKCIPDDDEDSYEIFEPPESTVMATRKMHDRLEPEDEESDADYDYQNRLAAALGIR
T1 sequence (P12259 1574-2224 limits assumed): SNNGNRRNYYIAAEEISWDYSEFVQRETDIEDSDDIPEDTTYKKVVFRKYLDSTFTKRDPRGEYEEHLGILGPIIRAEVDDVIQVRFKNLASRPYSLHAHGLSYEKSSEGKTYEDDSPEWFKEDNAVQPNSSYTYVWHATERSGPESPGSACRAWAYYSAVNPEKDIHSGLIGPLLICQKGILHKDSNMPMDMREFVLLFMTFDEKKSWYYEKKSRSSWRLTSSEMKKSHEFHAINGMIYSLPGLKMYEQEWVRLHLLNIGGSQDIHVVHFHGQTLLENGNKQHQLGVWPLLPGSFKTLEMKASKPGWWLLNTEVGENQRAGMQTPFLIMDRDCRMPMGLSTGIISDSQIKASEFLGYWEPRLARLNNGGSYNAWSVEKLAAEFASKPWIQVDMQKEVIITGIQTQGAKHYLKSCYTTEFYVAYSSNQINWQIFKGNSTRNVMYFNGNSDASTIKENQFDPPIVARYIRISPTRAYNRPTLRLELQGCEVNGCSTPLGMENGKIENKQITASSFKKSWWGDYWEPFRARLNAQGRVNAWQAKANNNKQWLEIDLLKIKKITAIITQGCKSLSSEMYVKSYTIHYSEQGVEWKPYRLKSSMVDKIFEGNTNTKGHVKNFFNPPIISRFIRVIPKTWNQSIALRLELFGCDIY
T1 sequence (P00742 41-179 partner limits assumed): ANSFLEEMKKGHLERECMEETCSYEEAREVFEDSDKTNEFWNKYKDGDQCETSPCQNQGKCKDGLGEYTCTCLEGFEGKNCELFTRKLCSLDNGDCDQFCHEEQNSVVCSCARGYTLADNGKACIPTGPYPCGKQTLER
T1 sequence (P00742 235-488 partner limits assumed): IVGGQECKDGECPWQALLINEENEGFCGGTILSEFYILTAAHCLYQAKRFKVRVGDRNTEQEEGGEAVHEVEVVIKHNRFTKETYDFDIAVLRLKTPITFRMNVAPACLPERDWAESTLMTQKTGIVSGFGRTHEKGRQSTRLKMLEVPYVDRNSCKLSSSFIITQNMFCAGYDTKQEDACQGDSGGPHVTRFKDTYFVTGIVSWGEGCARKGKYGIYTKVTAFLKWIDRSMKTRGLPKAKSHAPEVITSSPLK

EGSSVNLSPPLE [F2P1, F2-derived peptide, prothrombin residues 157-168]
inhibition of prothrombin activation in the absence of FVa [1]: inhibited prothrombin activation
dose-dependent inhibition of prothrombin activation [2]: inhibited prothrombin activation in a dose-dependent manner

thrombin
perturbed HSQC peaks of 15N-F2 [3]: two major clusters

CH91PRYNWRENLDR101C (disulfide) [thrombin-derived peptide, residues 91-101 in the B-chain of human thrombin with two Cys residues added, cyclic]
chemical shift changes in 15N-F2 versus intact thrombin [4]: smaller chemical shift changes

DLNYS*EEAVEEETG [F2P7, F2-derived peptide, prothrombin residues 244-257, cysteine changed to serine]
dose-dependent inhibition of prothrombin activation [2]: did not

DGLDEDSDRAIEGR [F2P8, F2-derived peptide, prothrombin residues 258-271]
inhibition of prothrombin activation in the absence of FVa [1]: inhibited prothrombin activation
dose-dependent inhibition of prothrombin activation [2]: inhibited prothrombin activation in a dose-dependent manner

FVa: factor Va, protein cofactor of prothrombinase
increase in rate of thrombin generation by FVa alone [5]: 3 orders of magnitude

LAWASAQAKALSKH [F2P4]
solubility [6]: not soluble

QDFNSAVQLVEN [F2P5]
solubility [6]: not soluble

YVAGKPGDFGY [F2P6, F2-derived peptide, prothrombin residues 232-242]
dose-dependent inhibition of prothrombin activation [2]: did not
